Here are results for 7 molecules from patent US20220387403A1, “COMPOUNDS, COMPOSITIONS AND METHODS FOR TREATING NASH, NAFLD, AND OBESITY” (CVI Pharmaceuticals Limited, priority 2019, published 2022).

Where two headings read alike, the source gives them in different places.

Series [1] relates to hyperlipidemic rabbits. Conditions: rabbit, in vivo.
In series [2] the test system is hyperlipidemic rabbits. Nature of the series: Lipid lowering effects and blood chemistry in hyperlipidemic rabbits. Conditions: for serum total cholesterol level: in mM.
For the next series, the system named is LDLR mRNA. Nature of the series: LDLR mRNA expression in HepG2 cells, quantitative real-time RT-PCR. The class given is cell-based, human. The note with it: 24 hours; for Activity on LDLR mRNA expression (Fold of control): dose less than or equal to 10 μM; for Activity on LDLR mRNA at 10 uM (fold of control) / Activity on LDLR mRNA at 40 uM (fold of control): mean ± s.d. How it is done: Activities of some compounds of Formulas I, II, III, and IV on LDLR mRNA expression were determined. HepG2 cells were treated with new compounds individually at a dose less than or equal to 10 μM for 24 hours. Total RNA was harvested for quantitative real-time RT-PCR analysis using the method described in Example 16B. […] In these experiments, berberine chloride was included for comparison. […]
Total RNA was harvested for quantitative real-time RT-PCR analysis using method described in Examples 16B.
The effects of 23 compounds on the mRNA expressions of LDLR and PCSK9 were examined using quantitative real-time RT-PCR assays. HepG2 cells were treated with various compounds at 10 and 40 uM concentrations for 24 hours. Total RNA was isolated and 2 μg was used to generate cDNA in a reaction containing random primers and M-MLV at 37° C. for 1 h in a volume of 25 μl. Real-time PCR was performed on the cDNA using MCEP REALPLEX 2 SYSTEM (Eppendorf) and Universal MasterMix (Applied Biosystems). Human LDLR, PCSK9, and GAPDH Pre-Developed TaqMan Assay Reagents (Applied Biosystems) were used to assess the levels of mRNA expressions in HepG2. The levels of LDLR and PCSK9 mRNA were normalized to that of GAPDH. Each RNA samples was assayed in duplicate. The fold activity was calculated by dividing mRNA abundance in compound treated cells with that of control.
For orientation: In qPCR the cycle at which signal appears reflects the starting amount.

The mark [3] stands for this setting: after 14 days of drug treatment, mean, n = 6.
[4] abbreviates: treatment day 0 (before the drug treatment), mean ± SD, n = 6.
[5] abbreviates: treatment day 4, 128(+)/128(−) 30 mg/kg, SMV/ATV 3 mg/kg once a day oral gavage.
[6] abbreviates: treatment day 7, 128(+)/128(−) 30 mg/kg, SMV/ATV 3 mg/kg once a day oral gavage.
The mark [7] stands for this setting: treatment day 10, from day 7 128(+)/128(−) 60 mg/kg, SMV/ATV 10 mg/kg.
Setting [8] is: treatment day 14, from day 7 128(+)/128(−) 60 mg/kg, SMV/ATV 10 mg/kg.

With `CC(C)c1c(C(=O)Nc2ccccc2)c(-c2ccccc2)c(-c2ccc(F)cc2)n1CC[C@@H](O)C[C@@H](O)CC(=O)O` [ATV, atorvastatin, reference compound], in the series on hyperlipidemic rabbits [1], the ALP came to 333.5 IU/L, the ALT is 795.6 IU/L, the AST is listed as 767.0 IU/L and the CK was determined as 7270.0 U/L. Besides, in the series with hyperlipidemic rabbits [1], the CREA was 238.2 µmol/L, the GLU is listed as 6.7 mmol/L and the LDH amounted to 675.0 IU/L. In the series with hyperlipidemic rabbits [2] (setting [3]), this molecule showed an HDL-C of 3.6 mmol/L, an LDL-C of 29.6 mmol/L, a TC of 33.9 mmol/L and a TG of 1.7 mmol/L. In addition, the “serum total cholesterol level” value in the series on hyperlipidemic rabbits [2] (setting [4]) is recorded as 28.9 ± 6.0. Further, in the series with hyperlipidemic rabbits [2] (setting [5]), the “serum total cholesterol level” value came to 26.5 ± 5.2. Further, in the series with hyperlipidemic rabbits [2] (setting [6]), the “serum total cholesterol level” value is 31.5 ± 4.9. Also, the “serum total cholesterol level” value in the series with hyperlipidemic rabbits [2] (setting [7]) came to 32.5 ± 4.5. Besides, in the series on hyperlipidemic rabbits [2] (setting [8]), the “serum total cholesterol level” value was found to be 33.9 ± 6.5.
With `CCOC(=O)Oc1c(OC)ccc2c1CN1CCc3cc4c(cc3C1C2)OCO4` (stereo not shown) [Compound 48, 10-methoxy-5,6,7,8,13,13a-hexahydro-2H-1,3-dioxolano[4,5-g]isoquinolino[3,2-a]isoquinolin-9-yl ethoxyformate], the “Activity on LDLR mRNA expression (Fold of control)” value in the series with LDLR mRNA is 1.45 ± 0.15 Fold of control.
`COc1ccc2c(c1OC(=O)Nc1ccccc1)CN1CCc3cc4c(cc3C1C2)OCO4` (stereo not shown) [Compound 61, (10-methoxy(5,6,7,8,13,13a-hexahydro-2H-1,3-dioxolano[4,5-g]isoquinolino[3,2-a]isoquinolin-9-yloxy))-N-benzamide]: in the series with LDLR mRNA, the “Activity on LDLR mRNA expression (Fold of control)” value is 1.33 ± 0.53 Fold of control.
For the molecule `COc1ccc2c(c1OS(=O)(=O)c1ccccc1)CN1CCc3cc(C)ccc3C1C2` (stereo not shown) [Compound 121, 10-Methoxy-3-methyl-5,6,7,8,13,13a-hexahydroisoquinolino[2,1-b]isoquinolin-9-yl benzenesulfonate], in the series with LDLR mRNA, the “Activity on LDLR mRNA at 10 uM (fold of control)” value is reported as 3.56 ± 0.03 fold of control and the “Activity on LDLR mRNA at 40 uM (fold of control)” value is reported as 3.43 ± 0.81 fold of control.
The corresponding values for `COc1cc2c(cc1OC)C1C(C)c3ccc(OC)c(OS(=O)(=O)c4ccccc4)c3CN1CC2` (stereo not shown) [Compound 139, 2,3,10-Trimethoxy-13-methyl-5,6,7,8,13,13a-hexahydro-isoquinolino[2,1-b]isoquinolin-9-yl benzensulfonate] are 11.5 ± 1.29 fold of control and 3.02 ± 0.34 fold of control.
Take `COc1ccc2c(c1)CCN1Cc3c(ccc(OC)c3OS(=O)(=O)c3ccccc3)C(C)C21` (stereo not shown) [Compound 140, 3,10-Dimethoxy-13-methyl-5,6,7,8,13,13a-hexahydro-isoquinolino[2,1-b]isoquinolin-9-yl benzenesulfonate]: the “Activity on LDLR mRNA at 10 uM (fold of control)” value with LDLR mRNA is 6.65 ± 0.68 fold of control.
With `CCC(C)(C)C(=O)O[C@H]1C[C@@H](C)C=C2C=C[C@H](C)[C@H](CC[C@@H]3C[C@@H](O)CC(=O)O3)[C@H]21` [SMV, simvastatin, reference compound], in the series with hyperlipidemic rabbits [1], the CK is 6492.8 U/L and the GLU was found to be 7.9 mmol/L. Further, in the series with hyperlipidemic rabbits [2] (setting [3]), the ALP was 288.7 IU/L, the CREA stood at 242.2 µmol/L, the HDL-C amounted to 2.9 mmol/L and the LDH is 530.3 IU/L. In the series on hyperlipidemic rabbits [2] (setting [3]), this molecule yielded an LDL-C of 23.3 mmol/L, a TC of 26.2 mmol/L and a TG of 1.7 mmol/L. Further, in the series on hyperlipidemic rabbits [2] (setting [4]), the “serum total cholesterol level” value was determined as 28.8 ± 7.4. In addition, the “serum total cholesterol level” value with hyperlipidemic rabbits [2] (setting [5]) is given as 24.8 ± 6.1. For the same molecule, in the series on hyperlipidemic rabbits [2] (setting [6]), the “serum total cholesterol level” value turned out to be 26.1 ± 4.4. In addition, in the series with hyperlipidemic rabbits [2] (setting [7]), the “serum total cholesterol level” value is 25.4 ± 6.1. Moreover, the “serum total cholesterol level” value with hyperlipidemic rabbits [2] (setting [8]) stood at 26.2 ± 5.5.
